{
  "source": "patent US20060122107A1",
  "about": "(Monash University, priority 2002, published 2006)",
  "key": {"Serum stability assay": {"test": "Serum stability assay", "type": "in vitro ADME, mouse", "conditions": "for remaining at 2 h, 0.091 mg/ml: male", "method": "10 μL of an aqueous peptide solution containing 1 mg/ml peptide was added to 100 μl of 20% mouse serum (From adult male BL6 mice), and incubated at 37° C. for 0 min, 2 hrs and 12 hrs. At each time point samples were taken and serum proteins removed by precipitation through the addition of 40 μl of 15% TCA. Samples were stored at 4° C. for 30 min and centrifuged. Supernatants were then removed and kept on ice. 50 μl of each supernatant was analysed by RP-HPLC using 0.1% TFA in water (eluent A) and 0.09% TFA in 60% aqueous acetonitrile (eluent B) and the following gradient.\nThe column was a Pharmacia μRPC octadecyl silica column of […] nominal particle size and 300 Å pore size. The flow rate was 200 μl/min and UV detection was used at 214 nm, 254 nm and 280 nm. Values are given as area of peptide peak (214 nm). Peptide amounts at T=0 min were used as 100%. Peptide digests were fractionated and Electrospray ionisation (ESI) Ion Trap Mass spectrometry was used to characterise the fragmentation pattern of SIINFEKL and selected β-amino acid analogues.\nSince β-amino acids are resistant to proteolysis, the influence of peptide modification on stability against proteolysis was tested by monitoring the degradation of the peptides in mouse blood serum. Degradation kinetics were followed by reverse phase-HPLC (RP-HPLC) analysis using corresponding peak area for peptide quantification. The parental SIINFEKL peptide was degraded rapidly, with only 5% of the peptide being recovered after 2 hrs. For the βC3-analogues, the amount of degradation was highly dependent on the position of the substitution. Limited stabilisation occurred for peptides with substitutions at P3 and P4 with 8% and 7% recovery respectively (FIG. 11). For the substitution at P1, 10% of the initial peak was recovered. […] For β-Phe at P5 and β-Leu at P8 over 25% of the initial peak was recovered after 2 hrs."}, "[1]": {"target": "MHC Class I H2-K^b on cells (mouse)", "test": "flow cytometry on RMA-S cells, with against without exogenous peptide"}, "[2]": {"test": "20% mouse serum (From adult male BL6 mice)", "conditions": "37° C., up to 12 hrs"}, "CD8^+ T cell response": {"tested_on": "CD8^+ T cell response", "conditions": "mixture of peptides intradermally, patients bearing NY-ESO^+ tumors; cited from earlier work"}, "HLA-A2": {"target": "HLA-A2 (Homo sapiens, UniProt P04439, D140Y/D185E/D98H/E176V/E277Q/G131W/G231S/I119V/I121R/I166T/I218V/L300P/L318F/N151K/N90K/P208A/P217A/Q86G/Q94H/R138H/R169H/T345S)", "conditions": "cited from earlier work"}, "[3]": {"test": "construct that expresses an ER-targeted ESO157-167"}, "CTL clone HSV2.3": {"tested_on": "CTL clone HSV2.3", "test": "T-hybrid CTL recognition assay (IL-2 bioassay), control clone HSV2.3", "type": "cell-based, mouse", "source_text": "(§1) The SIINFEKL/K^b-restricted CD8^+ CTL clones B3.1, GA4.2 (Nikolic-Zugic, J., and Carbone F. R. (1990). The effect of mutations in the MHC Class I peptide binding groove on the cytotoxic T lymphocyte recognition of the Kb restricted ovalbumin determinant. Eur. J. Immunol. 20:2431), 149.13.13, 149.42.12 (Clark S. R., Barnden M., Kurts C., Carbone F. R., Miller J. F., Heath J. R. Characterization of the ovalbumin-specific TCR transgenic line OT-I: MHC elements for positive and negative selection. Immunol Cell Biol. April 2000;78(2): 110-7), and the herpes simplex viral specific clone HSV2.3 (Wallace, M. E., Keating, R., Heath, W R., Carbone, F. R. 1999. […]\n(§2) CTLL-2 cells were grown to ˜5×10^5 cell per ml then washed 3 times in media containing no exogenous IL-2. […] Once dry, scintillation fluid (Packard Biosciences, Melbourne) was added, then counted on a TopCount scintillation counter (Packard Biosciences, Melbourne).\n(§3) CTL clones (expressing different TCR Vβ/Vα segments) restricted by the H2-K^b molecule, and specific to the SIINFEKL peptide were tested for their ability to recognise the various βC3-amino acid substituted analogues (Table X). […] CTTL-2 proliferation is then measured by 3H-Thymydine incorporation and counted on a scintillation counter."}, "[4]": {"tested_on": "SIINFEKL/K^b-restricted CD8^+ CTL clones", "test": "T-hybrid CTL recognition assay (IL-2 bioassay), panel of clones", "type": "cell-based, mouse", "conditions": "1 μM peptide pulsed on I-3 cells", "source_text": "as §1, §2, §3"}, "[5]": {"target": "H2-K^b complex with Peptide 4 (βC3-Ile at P3) on cells (mouse)", "test": "RMA-S stabilisation assay with 25-D1.16, flow cytometry"}, "[6]": {"target": "H2-K^b complex with Peptide 2 (βC3-Ser at P1) on cells (mouse)", "test": "RMA-S stabilisation assay with 25-D1.16, flow cytometry"}, "[7]": {"conditions": "BL6, 20% mouse serum, 37° C., RP-HPLC peak area 214 nm, read-out: peptide recovered after 2 hrs"}},
  "note": "Entries after “also recorded” stand apart in the source; their conditions may differ. Read-outs that look alike come from different tables or passages of the source.",
  "data": [
    {"compound": "CC[C@H](C)[C@H](NC(=O)[C@@H](NC(=O)[C@@H](N)CO)[C@@H](C)CC)C(=O)N[C@@H](CC(N)=O)C(=O)N[C@@H](Cc1ccccc1)C(=O)N[C@@H](CCC(=O)O)C(=O)N[C@@H](CCCCN)C(=O)N[C@@H](CC(C)C)C(=O)O", "note": "[Peptide 1, SIINFEKL, reference compound]", "values": [
      {"measurement": "remaining at 2 h, 0.091 mg/ml", "setting": "Serum stability assay; [7]", "result": 5, "unit": "%"},
      {"measurement": "serum cleavage sites (MS of fragments)", "setting": "Serum stability assay; mouse serum", "result": "S*I*I*NF*E*KL"}
    ]},
    {"compound": "CC[C@H](C)[C@H](NC(=O)CC(N)CO)C(=O)N[C@H](C(=O)N[C@@H](CC(N)=O)C(=O)N[C@@H](Cc1ccccc1)C(=O)N[C@@H](CCC(=O)O)C(=O)N[C@@H](CCCCN)C(=O)N[C@@H](CC(C)C)C(=O)O)[C@@H](C)CC", "note": "(stereo partly drawn) [Peptide 2]", "values": [
      {"measurement": "remaining at 2 h, 0.091 mg/ml", "setting": "Serum stability assay; [7]", "result": 10, "unit": "%"}
    ]},
    {"compound": "CCC(C)C(CC(=O)N[C@H](C(=O)N[C@@H](CC(N)=O)C(=O)N[C@@H](Cc1ccccc1)C(=O)N[C@@H](CCC(=O)O)C(=O)N[C@@H](CCCCN)C(=O)N[C@@H](CC(C)C)C(=O)O)[C@@H](C)CC)NC(=O)[C@@H](N)CO", "note": "(stereo partly drawn) [Peptide 3]", "values": [
      {"measurement": "resistance to proteolytic degradation", "setting": "Serum stability assay", "result": "significant resistance"}
    ]},
    {"compound": "CCC(C)C(CC(=O)N[C@@H](CC(N)=O)C(=O)N[C@@H](Cc1ccccc1)C(=O)N[C@@H](CCC(=O)O)C(=O)N[C@@H](CCCCN)C(=O)N[C@@H](CC(C)C)C(=O)O)NC(=O)[C@@H](NC(=O)[C@@H](N)CO)[C@@H](C)CC", "note": "(stereo partly drawn) [Peptide 4]", "values": [
      {"measurement": "serum cleavage sites (MS of fragments)", "setting": "Serum stability assay", "result": "no cleavage at the P2-P3 bond"},
      {"measurement": "remaining at 2 h, 0.091 mg/ml", "setting": "Serum stability assay; BL6, mouse, serum", "result": 8, "unit": "%"}
    ]},
    {"compound": "CC[C@H](C)[C@H](NC(=O)[C@@H](NC(=O)[C@@H](N)CO)[C@@H](C)CC)C(=O)NC(CC(N)=O)CC(=O)N[C@@H](Cc1ccccc1)C(=O)N[C@@H](CCC(=O)O)C(=O)N[C@@H](CCCCN)C(=O)N[C@@H](CC(C)C)C(=O)O", "note": "(stereo partly drawn) [Peptide 5]", "values": [
      {"measurement": "remaining at 2 h, 0.091 mg/ml", "setting": "Serum stability assay; BL6, mouse, serum", "result": 7, "unit": "%"}
    ]},
    {"compound": "CC[C@H](C)[C@H](NC(=O)[C@@H](NC(=O)[C@@H](N)CO)[C@@H](C)CC)C(=O)N[C@@H](CC(N)=O)C(=O)NC(CC(=O)N[C@@H](CCC(=O)O)C(=O)N[C@@H](CCCCN)C(=O)N[C@@H](CC(C)C)C(=O)O)Cc1ccccc1", "note": "(stereo partly drawn) [Peptide 6, SIINβFEKL]", "values": [
      {"measurement": "full peptide at t=12 hrs", "setting": "Serum stability assay", "result": "disappeared"},
      {"measurement": "serum cleavage sites (MS of fragments)", "setting": "Serum stability assay", "result": "cleavage did not occur after the P5 amino acid"},
      {"measurement": "remaining at 2 h, 0.091 mg/ml", "setting": "Serum stability assay; BL6, mouse, serum", "result": "> 25", "unit": "%"}
    ]},
    {"compound": "CC[C@H](C)[C@H](NC(=O)[C@@H](NC(=O)[C@@H](N)CO)[C@@H](C)CC)C(=O)N[C@@H](CC(N)=O)C(=O)N[C@@H](Cc1ccccc1)C(=O)N[C@@H](CCC(=O)O)C(=O)N[C@@H](CCCCN)C(=O)NC(CC(=O)O)CC(C)C", "note": "(stereo partly drawn) [Peptide 8, SIINFEKβL]", "values": [
      {"measurement": "remaining at 2 h, 0.091 mg/ml", "setting": "Serum stability assay; [7]", "result": "> 25", "unit": "%"},
      {"measurement": "resistance to proteolytic degradation", "setting": "Serum stability assay; mouse serum, 2 hrs, listed as P8", "result": "significant resistance; also recorded: most stable"}
    ]},
    {"compound": "H2-K^b specific monoclonal antibody Y-3", "values": [
      {"measurement": "fold increase in surface K^b staining with exogenous peptide", "setting": "[1]", "result": 50, "unit": "fold"}
    ]},
    {"compound": "SIINFEKL", "values": [
      {"measurement": "cleaved bond", "setting": "[2]", "result": "S-I, 2 hrs; also recorded: I-N, 2 hrs; also recorded: F-E, 2 hrs; also recorded: E-K, 2 hrs"}
    ]},
    {"compound": "SLLMWITQC [ESO157-165]", "values": [
      {"measurement": "CD8^+ T cell response after peptide vaccination", "setting": "CD8^+ T cell response", "result": "later and at a lower level"},
      {"measurement": "binding to HLA-A2", "setting": "HLA-A2", "result": "poor binding"}
    ]},
    {"compound": "SLLMWITQCFL", "values": [
      {"measurement": "fragment found", "setting": "[3]", "result": "ESO157-165; also recorded: ESO159-167"}
    ]},
    {"compound": "SLLMWITQCFL [ESO157-167, NY-ESO 157-167 HLA-A*0201-restricted determinant]", "values": [
      {"measurement": "CD8^+ T cell response after peptide vaccination", "setting": "CD8^+ T cell response", "result": "vigorous"}
    ]},
    {"compound": "SSIEFARL [peptide recognised by the Herpes Simplex Virus specific control clone HSV2.3]", "values": [
      {"measurement": "recognition by control clone HSV2.3", "setting": "CTL clone HSV2.3", "result": "mainly mediated"},
      {"measurement": "CTL recognition by the clones", "setting": "[4]", "result": "not recognised"}
    ]},
    {"compound": "Ser Ile Ile Asn β^c3Phe Glu Lys Leu", "values": [
      {"measurement": "not cleaved", "setting": "[2]", "result": "At t=12 hrs the full peptide has disappeared leaving only fragments"}
    ]},
    {"compound": "Ser Ile β^c3Ile Asn Phe Glu Lys Leu", "values": [
      {"measurement": "not cleaved", "setting": "[2]", "result": "At t=2 hrs most of the full peptide has disappeared"}
    ]},
    {"compound": "monoclonal antibody 25-D1.16", "values": [
      {"measurement": "fold increase in peptide concentration to reach the same level of recognition as SIINFEKL", "setting": "[5]", "result": 100, "unit": "fold"},
      {"measurement": "fold increase in peptide concentration to reach the same level of recognition as SIINFEKL", "setting": "[6]", "result": 100, "unit": "fold"}
    ]}
  ]
}
